Where a name gives a salt, the structure may show the parent alone.
Columns and labels:
Abeta = conditions: NPL 13; cited from earlier work
Male IGS rats [1] = test: Spontaneous alteration test in rats (scopolamine-induced impairment); assay type: in vivo, rat
Method: Spontaneous Alteration Test in Rats (Method Referred: Eur. J. Pharmacol., 236 (1993) 341-345)
Male IGS rats (6 weeks-old, Charles River Laboratories Japan, Inc.) were used in this study. The scopolamine solution or saline was administered intraperitoneally 30 minutes after the administration of the test substance or vehicle. Thirty minutes after the injection, the rat was placed at the end of one arm toward to the end of the arm and was allowed to move freely through the maze for 8-min test session. The sequence of arm entries was recorded manually. Alteration was defined as entry into all three arms on consecutive choices. The percent alteration as an indicator of spontaneous alteration performance was calculated as (number of alterations/total number of arm entries minus 2)×100.
The effect of Compound A on the scopolamine-induced impairment of spontaneous alteration performance in rats was investigated. In the percent alterations, the values on saline- and scopolamine-treated groups were 75.2% and 53.9%, respectively.

Tg2576 mice = test: Abeta reduction in Tg2576 mice; assay type: in vivo; conditions: 1 and 10 mg/kg BID orally, three weeks; soluble plus insoluble Abeta, ELISA
Method: Female Tg2576 mice that express the human amyloid precursor protein (APP) gene with the Swedish mutation (APPSWE) were purchased from Taconic Farms (catalog #001349-TF).
Tg2576 mice (31-week old at the beginning of the experiment) were dosed orally twice a day (BID) for 3 weeks with 0.1, 1, or 10 mg/kg Compound A in the vehicle consisting of 0.5% methylcellulose and 0.1% Tween 80. Mice were euthanized three hours after the last dose. Brain tissues were collected and homogenized in 5-volumes of ice-cold TBS buffer (50 mM Tris-HCl) containing 1% CHAPS and protease inhibitors. The homogenates were centrifuged at 14,000 g for 10 minutes at 4° C., and the resulting supernatants were collected as soluble pool of Abeta. The pellets were dissolved in the starting volume of 5 M guanidine in TBS buffer and the resulting homogenates were collected as insoluble pool of Abeta. Abeta1-40 and Abeta1-42 were quantified using commercially available ELISA kits according to the manufacture's instructions. Measurements were performed in duplicate. The final values of Abeta in the brain were expressed as nanograms per gram wet brain weight. Total Abeta levels were obtained by adding the values of the soluble and insoluble Abeta levels.

Male IGS rats [2] = test: Rat Novel Object Recognition Study; assay type: in vivo
Method: Rat Novel Object Recognition Study (Method Referred: PNAS, 101 (2003) 853-858)
Male IGS rats (9 weeks-old, Charles River Laboratories Japan, Inc.) were used in this study. Compound A and donepezil hydrochloride (reference substance) were orally administered at 60 min before training trial and before retention trial. Number of animals per group was 15. Open-field box (40×40×40 cm) with sawdust covering its floor was used in this study. As for the training trials, the animals were allowed to explore two identical objects (A1 and A2) for 3 min. The objects are plastic “LEGO bricks” that vary in shape, color, and size. […]
Exploration of an object was defined as pointing the nose to the object at a distance of <1 cm and/or touching it with the nose. DVD images were analyzed by an observer who was […] of the treatment condition. To assess cognitive performance, the time spent exploring the familiar (TA3) and novel (TB) object, and discrimination index (DI; (TB−TA3)/(TB+TA3)) was analyzed. […] To assess the overall levels of exploratory performance, total time spent exploring the both objects was analyzed.
For Compound A, discrimination index was analyzed using Bartlett's test followed by Dunnett's multiple comparison test. […] For donepezil, discrimination index was analyzed using F-test, followed by Student's t-test. […]

[3] = system: rat hippocampus (Hip) ACh level; test: Increase of hippocampus ACh release in rats (microdialysis); assay type: in vivo; conditions: direct injection (perfusion via dialysis probe, 120 min) into rat Hip; 100 nM eserine in aCSF
Method: Increase of Hippocampus ACh Release in Rats
Effects of Compound A on rat hippocampus (Hip) ACh level were tested using microdialysis in Male Wistar rats. One day before the start of the experiments, rats were anesthetized and guide cannula was implanted in the dorsal Hip. One day after surgery, a dialysis probe was inserted through a guide cannula in Hip and perfused with artificial cerebrospinal fluid (aCSF) containing 148 mM NaCl, 2.7 mM KCl, 1.2 mM CaCl2, 0.85 mM MgCl2, together with 100 nM eserine. After a 1 h equilibration period, sample collection began. Outflow fractions were collected every 20 min. After six stable baseline fractions were collected, the perfusate was replaced to aCSF containing Compound A with 100 nM eserine for 120 min, and then it was switched again to aCSF with 100 nM eserine alone. Dialysis fractions were then analyzed using high performance liquid chromatography with an electrochemical detection system. Isopropyl homocholine was used as internal standard. The amount of ACh in each dialysate sample was calculated from the peak height ratio of ACh/IPHC. ACh content was expressed as a percent of baseline calculated from the average of three samples preceding drug infusion.
ACh content was expressed as a percent of baseline calculated from the average of three samples preceding drug infusion.

In the case of `CC(C)n1c(=O)c(C(=O)NCCCN2CCCCC2)c(O)c2ccsc21` [PRX-03140], the “Abeta reduction in animal models” value (Abeta) is given as “Abeta reducing tendency while those efficacies were not significant suppressions”.

In the case of `CN1[C@@H]2C[C@@H](OC(=O)[C@H](CO)c3ccccc3)C[C@H]1[C@@H]1O[C@@H]12` [scopolamine, reference compound], the percent alteration (Male IGS rats [1]; scopolamine-treated group (intraperitoneal), saline-treated group 75.2%, p<0.01) is reported as 53.9%.

In the case of `CC(C)n1c(=O)n(C(=O)NCC2CCN(CC3(O)CCOCC3)CC2)c2ccccc21` [Compound A, N-((1-((4-hydroxytetrahydro-2H-pyran-4-yl)methyl)piperidin-4-yl)methyl)-3-isopropyl-2-oxo-2,3-dihydro-1H-benzo[d]imidazole-1-carboxamide], the “total brain Abeta1-40 levels” value (Tg2576 mice) is reported as “significantly decreased total brain Abeta1-40 levels”, the “total brain Abeta1-42 levels” value (Tg2576 mice) is reported as “dose-dependently and substantially decreased total brain Abeta1-42 levels” and the percent alteration (Male IGS rats [1]; 0.1 and 3 mg/kg, scopolamine-induced impairment) is reported as “showed a tendency to improve without statistical significance”. For the same molecule, the percent alteration (Male IGS rats [1]; doses of 0.3 and 1 mg/kg, scopolamine-induced impairment, vs vehicle-treated group (p<0.01)) was “significantly increased the percent alterations”, the discrimination index (Male IGS rats [2]; Compound A 0.1, 0.3, 1 mg/kg, orally 60 min before training and retention trial, vs vehicle (*p<0.05, **p<0.01, Dunnett)) was “statistically significant compared to that in vehicle-treated group” and the “ACh concentration (percent of baseline)” value [3] was 187%.

In the case of `COc1cc2c(cc1OC)C(=O)C(CC1CCN(Cc3ccccc3)CC1)C2` (stereo not drawn) [donepezil, donepezil hydrochloride, reference compound], the discrimination index (Male IGS rats [2]; donepezil-treated group, orally, vs vehicle (p<0.05, Student's t-test)) is reported as “statistically significant compared to that in vehicle-treated group”.
